# Tests used:
# Type in all cases: cell-based, human
# hESCs [1] = test: Quantitative RT-PCR (QPCR) of transcript accumulation in hESCs differentiated through Stages 1-4
# Experimental: Culture of undifferentiated hESCs or human iPS (hiPS) cells. Cell lines used were NIH-approved H1 (WA01) and H9 (WA09) between passage 18 and 42, though hiPS cell lines derived from iPS (IMR-90)-4-MCB-1, iPS (Foreskin)-1-MCB-1, and DF 19-9-7T-MCB-01 may be used, as well as mouse ES cells.
# Chemically defined medium comprised 80% DMEM/F12 and 20% Knockout serum replacement supplemented with 1 mM L-glutamine, 1% nonessential amino acids, 0.1 mM 2-mercaptoethanol and 4 ng/ml bFGF (all from Invitrogen). hESCs were cultured in 6-well plates on a feeder layer of irradiated MEFs, and the medium was refreshed daily. When the cells were nearly confluent, the ES cell colonies were split and passaged by detaching them from the feeder layer with 2 mg/ml dispase (Invitrogen). The colonies were then rinsed off the plates and filtered through a 70 μm cell strainer to remove MEFs. The colonies remained in the strainer. The retained cells were rinsed, pipetted into small pieces, and plated on growth factor-depleted Matrigel™ (BD Biosciences) at a density of 70% to 80% confluence in MEF-conditioned media.
# Stage 1. On the day after splitting, differentiation was initiated by replacing the medium with medium containing 100 ng/ml bFGF, 100 ng/ml Activin A and 50 ng/ml BMP4 (FAB) in DMEM/F12 supplemented with 2% BSA, 1 mML-glutamine, 1% nonessential amino acids and 0.1 mM 2-mercaptoethanol for 3 to 4 days. The medium was refreshed daily.
# (§1) Stage 2. FAB-treated cells were detached from the plate with 2 mg/ml dispase and grown in suspension as cell aggregates in MEF-conditioned medium (CM) for 2 days. On the third day, the medium was switched to DMEM/F12 with ITS supplement (BD, 5 μg/ml insulin+5 μg/ml transferrin+5 ng/ml selenous acid) and 50 ng/ml bFGF for 12 days in suspension culture dishes. The medium was refreshed every 2 days.
# Stage 3. Cell aggregates were transferred to a 15 ml centrifuge tube and allowed to settle by gravity. The medium was aspirated, and the pellet-containing tube placed on ice. Two milligrams of Matrigel™ were diluted with 3 ml of cold DMEM/F12 added to the pellet at a density of 50 to 100 cell aggregates/ml. One half milliliter of this diluted Matrigel™/cell aggregate mixture was added onto a coverslip previously loaded into wells of a 24-well plate and incubated overnight at 37° C. in 5% CO2.
# Nongelled Matrigel™ was aspirated from the wells and ITSFINE medium, a serum-free medium comprised of DMEM/F12 with ITS, 10 ng/ml FGF7 (R&D), 200 nM INGAP (PSN-4765, sequence: IGLHDPSHGTLPNGS), 10 mM nicotinamide (Sigma), 10 nM exendin-4 (Sigma), 4 μg/ml insulin (Gibco) and 2 g/L BSA (Sigma) was added for 21 to 28 days. The medium was refreshed every other day. As an alternative to DMEM/F12 only, DMEM/F12 may be used for the first 14 days of culture followed by 14 days of RPMI1640 as the base medium.
# Stage 4. The sphere-structured cell masses were washed and the medium was replaced with RPMI1640 supplemented with 1×B27 (Invitrogen) and 10 mM nicotinamide for 1 to 2 weeks. Alternatively, the sphere-structured cell masses may be dislodged with 2 mg/ml dispase (two hundred microliters of per well of a 24-well plate), rinsed off the plate, and placed in suspension culture dishes in DMEM/F12 supplemented with 1×B27 and 10 mM nicotinamide for 1 to 2 weeks.
# Total cellular RNA was extracted with Trizol (Invitrogen). cDNA was synthesized from 1 μg total RNA using a SuperScript First-Strand Synthesis kit (Invitrogen). Quantitative real time RT-PCR (QPCR) was performed using Assays-on-demand agents (Applied Biosystems) on an ABI PRISM 7700 Sequence Detection System (Applied Biosystems) for the following transcripts: foxa2, sox17, brachyury, ngn3, pdx1, insulin, glucagon, glut2 and an endogenous control, β-actin (see Table No. 2 for assay numbers). QPCR was performed according to the equipment manufacturer's instructions. Relative quantification was carried out using the comparative cycle threshold (CT) method recommended by the supplier. […]
# hESCs [2] = test: Trophoblast differentiation (hCG and CDX2 expression); settings: for cdx2 expression at Stage 1: compared to undifferentiated hESCs
# Experimental: FIG. 3 illustrates how treatment of hESCs with BMP4 and/or bFGF influences cell fate. Cultures of adherent, undifferentiated hESCs grown in MEF-conditioned media were treated for 1, 4, or 7 days and then assayed for human chorionic gonadotropin (hCG) protein expression (a) or hCG transcript accumulation by QPCR (b). For QPCR results, the fold change values and statistical analyses were calculated by comparing treated cells with cells grown to the same time point but without added growth factors (ctrl). B10, 10 ng/ml BMP4; B50, 50 ng/ml BMP4; B100, 100 ng/ml BMP4; B10F, 10 ng/ml BMP4+100 ng/ml bFGF; B50F, 50 ng/ml BMP4+100 ng/ml bFGF; B100F, 100 ng/ml BMP4+100 ng/ml bFGF. *, p<0.05; **, p<0.01.
# FIG. 4 illustrates the expression of cdx2 transcript at Stage 1. Fold change values compared to undifferentiated hESCs are shown. […] CM, conditioned media; F, bFGF; A, Activin A; B, BMP4; inhib, SB431542 Activin signaling inhibitor; D/F, DMEM/F12; I, insulin. See Materials and Methods for growth factor concentrations.
# (§2) Total cellular RNA was extracted with Trizol (Invitrogen). cDNA was synthesized from 1 μg total RNA using a SuperScript First-Strand Synthesis kit (Invitrogen). Quantitative real time RT-PCR (QPCR) was performed using Assays-on-demand agents (Applied Biosystems) on an ABI PRISM 7700 Sequence Detection System (Applied Biosystems) for the following transcripts: foxa2, sox17, brachyury, ngn3, pdx1, insulin, glucagon, glut2 and an endogenous control, β-actin (see Table No. 2 for assay numbers). QPCR was performed according to the equipment manufacturer's instructions. Relative quantification was carried out using the comparative cycle threshold (CT) method recommended by the supplier. Fold change was calculated as: 2^−ΔΔCT. Mean ΔΔCT values from QPCR analyses were compared using the unpaired, two-tailed Student's t-test. P values <0.05 were considered significant.
# hESC = test: Q-PCR CTs of pancreas-associated transcripts in BMP4-treated, differentiated hESC
# Experimental: as §2
# hESCs [3] = test: Embryoid body formation and pancreatic differentiation in suspension culture
# Experimental: as §1
molecule,measurement,setting,value
"NC(=O)c1ccc(-c2nc(-c3ccc4c(c3)OCO4)c(-c3ccccn3)[nH]2)cc1 [SB431542, reference compound]","expression of gsc, Mixl1, Brachyury and FOXA2",hESCs [1]; added to cells treated with bFGF+BMP4 in CM,completely inhibited expression
"insulin: a PI3K agonist, component of serum replacement",induction of Brachyury,hESCs [1]; combined with Activin A,significantly increased
same,induction of SOX17,hESCs [1]; combined with Activin A,significantly decreased
"BMP4: bone morphogenetic protein 4, member of the TGFβ superfamily",cdx2 expression at Stage 1,hESCs [2],increase in cdx2 expression
same,trophoblast differentiation (hCG and CDX2 expression),"hESCs [2]; higher concentrations, alone, 7 days",high proportion of trophoblast differentiation
same,"endoderm- (sox17, foxa2, pdx1) and pancreas-associated (pdx1, insulin) transcripts in EBs","hESCs [1]; hESCs grown on MEFs, 50 ng/ml",increased
same,Q-PCR CT of Foxa2,hESC; EB14,24.0
same,Q-PCR CT of Glucagon,hESC; EB14,28.7
same,Q-PCR CT of Glut2,hESC; EB14,23.0
same,Q-PCR CT of Insulin,hESC; EB14,34.6
same,Q-PCR CT of Pdx1,hESC; EB14,26.7
same,Q-PCR CT of T,hESC; EB14,25.4
same,Q-PCR CT of β-actin,hESC; EB14,15.0
same,Q-PCR CT of Foxa2,hESC; EB14 + 14,23.1
same,Q-PCR CT of Glucagon,hESC; EB14 + 14,22.0
same,Q-PCR CT of Glut2,hESC; EB14 + 14,22.0
same,Q-PCR CT of Insulin,hESC; EB14 + 14,28.4
same,Q-PCR CT of Pdx1,hESC; EB14 + 14,23.9
same,Q-PCR CT of T,hESC; EB14 + 14,27.9
same,Q-PCR CT of β-actin,hESC; EB14 + 14,14.7
same,Q-PCR CT of Foxa2,hESC; EB14 + 21,23.0
same,Q-PCR CT of Glucagon,hESC; EB14 + 21,21.0
same,Q-PCR CT of Glut2,hESC; EB14 + 21,21.1
same,Q-PCR CT of Insulin,hESC; EB14 + 21,27.8
same,Q-PCR CT of Pdx1,hESC; EB14 + 21,24.3
same,Q-PCR CT of T,hESC; EB14 + 21,28.4
same,Q-PCR CT of β-actin,hESC; EB14 + 21,14.9
same,Q-PCR CT of Foxa2,hESC; EB14 + 28,22.7
same,Q-PCR CT of Glucagon,hESC; EB14 + 28,20.2
same,Q-PCR CT of Glut2,hESC; EB14 + 28,20.4
same,Q-PCR CT of Insulin,hESC; EB14 + 28,26.0
same,Q-PCR CT of Pdx1,hESC; EB14 + 28,23.0
same,Q-PCR CT of T,hESC; EB14 + 28,28.5
same,Q-PCR CT of β-actin,hESC; EB14 + 28,15.4
same,Q-PCR CT of Foxa2,hESC; hESC + BMP4,25.6
same,Q-PCR CT of Glucagon,hESC; hESC + BMP4,>50
same,Q-PCR CT of Glut2,hESC; hESC + BMP4,32.8
same,Q-PCR CT of Insulin,hESC; hESC + BMP4,>50
same,Q-PCR CT of Pdx1,hESC; hESC + BMP4,36.4
same,Q-PCR CT of T,hESC; hESC + BMP4,25.6
same,Q-PCR CT of β-actin,hESC; hESC + BMP4,15.0
"noggin: a known BMP antagonist (protein, UniProt Q13253 28-232, looked up) Noggin: QHYLHIRPAPSDNLPLVDLIEHPDPIFDPKEKDLNETLLRSLLGGHYDPGFMATSPPEDRPGGGGGAAGGAEDLAELDQLLRQRPSGAMPSEIKGLEFSEGLAQGKKQRLSKKLRRKLQMWLWSQTFCPVLYAWNDLGSRFWPRYVKVGSCFSKRSCSVPEGMVCKPSKSVHLTVLRWRCQRRGGQRCGWIPIQYPIISECKCSC",effect of BMP4 on endoderm- and pancreas-associated transcripts,"hESCs [1]; 300 ng/ml, simultaneous incubation with 50 ng/ml BMP4",eliminated
same,"expression of SOX17, FOXA2, Brachyury and PDX1","hESCs [1]; added during Stage 1, read at the end of Stage 2",significantly reduced levels of expression
"Activin A: member of the TGF-β superfamily (protein, UniProt P08476 311-426, looked up, Inhibin beta A chain, member of the TGF-β superfamily) Inhibin beta A chain: GLECDGKVNICCKKQFFVSFKDIGWNDWIIAPSGYHANYCEGECPSHIAGTSGSSLSFHSTVINHYRMRGHSPFANLKSCCVPTKLRPMSMLYYDDGQNIIKKDIQNMIVEECGCS",cdx2 expression at Stage 1,hESCs [2],essentially eliminates expression of cdx2
same,induction of pancreatic cell differentiation,"hESCs [3]; 5, 50 or 100 ng/ml in serum-free medium, treatment alone",cannot induce pancreatic cell differentiation
same,EB formation from treated hESCs,hESCs [3]; Stage 1 treatment in CDM,failed to develop
same,"induction of MIXL1, GSC, T, SOX17 and FOXA2","hESCs [1]; CDM, compared to undifferentiated cells in CM",significant induction

# From patent US8685730B2, “Methods and devices for differentiating pluripotent stem cells into cells of the pancreatic lineage” (Wisconsin Alumni Research Foundation, priority 2006, dated 2014)
